Assay results as given in the OligoGym collection.
Where “and” joins values, the source holds several entries; their conditions need not be identical. Equal entries are not always repeated. After the bases stand the sugars from the 5' end (letter, count) and the backbone: PS all phosphorothioate, else s phosphorothioate and o phosphodiester by linkage. Methylation of C is not given here. k = constrained ethyl (cEt); d = 2'-deoxy (DNA)

Target: MALAT1
Conditions: ASO, A431, 0.005 µM

| Sequence | target mRNA inhibition |
| --- | --- |
| GTGTTATGCCTGGTTA (sugars k3 d10 k3, PS) | 2% |
| GTTAAAAACTTAACGC (sugars k3 d10 k3, PS) | 4% |
| GTTAAGACCATCCCAA (sugars k3 d10 k3, PS) | 19% |
| GTTAAGAGAAGCCCAG (sugars k3 d10 k3, PS) | 20% |
| GTTAAGTTTTCAGCAG (sugars k3 d10 k3, PS) | 17% |
| GTTACATGTTCCCACC (sugars k3 d10 k3, PS) | 37% |
| GTTATGCCTGGTTAGG (sugars k3 d10 k3, PS) | 16% |
| TAAAAAGGCTCGATGG (sugars k3 d10 k3, PS) | 39% |
| TAAACCTGTGGTGGTC (sugars k3 d10 k3, PS) | 30% |
| TAAACTCACTGCAAGG (sugars k3 d10 k3, PS) | 14% |
| TAAAGAGTGTTCGCAG (sugars k3 d10 k3, PS) | 51% |
| TAAAGTCTGATTAAGG (sugars k3 d10 k3, PS) | 4% |
| TAAAGTGTGATAGTTC (sugars k3 d10 k3, PS) | 14% |
| TAAATTGGTTACCAAT (sugars k3 d10 k3, PS) | 25% |
| TAACGAAGAGATACCT (sugars k3 d10 k3, PS) | 22% |
| TAAGACCATCCCAAAA (sugars k3 d10 k3, PS) | 16% |
| TAAGATAGCAGCACAA (sugars k3 d10 k3, PS) | -3% |
| TAAGATTGTAAGCATT (sugars k3 d10 k3, PS) | 23% |
| TAAGTTGGTAATTACT (sugars k3 d10 k3, PS) | 17% |
| TAATACCCTTCTGTTA (sugars k3 d10 k3, PS) | 19% |
| TAATCATACTCCAGTC (sugars k3 d10 k3, PS) | -3% |
| TAATGCACTGGTACAC (sugars k3 d10 k3, PS) | -22% |
| TACAACACCCGGAAAT (sugars k3 d10 k3, PS) | 16% |

| Sequence | target mRNA inhibition |
| --- | --- |
| TACACCTTGAGTCATT (sugars k3 d10 k3, PS) | 38% |
| TACACTCACTAGAACA (sugars k3 d10 k3, PS) | 3% |
| TACATCAAGGATGTAT (sugars k3 d10 k3, PS) | 2% |
| TACCACCTTTTGAAGG (sugars k3 d10 k3, PS) | 13% |
| TACCACTCCCAATTAA (sugars k3 d10 k3, PS) | 12% |
| TACCACTCTAAGATTG (sugars k3 d10 k3, PS) | 5% |
| TACCATAAGTAAGTTC (sugars k3 d10 k3, PS) | 4% |
| TACCGTTTTTCAGCTT (sugars k3 d10 k3, PS) | -31% |
| TACCTTGAAACCGATT (sugars k3 d10 k3, PS) | 36% |
| TACTCTGATCATAATC (sugars k3 d10 k3, PS) | 17% |
| TACTGAAAACTCCCCC (sugars k3 d10 k3, PS) | 22% |
| TACTTGTCTTAGCTTG (sugars k3 d10 k3, PS) | 51% |
| TACTTTCCATTACGCA (sugars k3 d10 k3, PS) | 16% |
| TAGCTTCCTTCACCAA (sugars k3 d10 k3, PS) | -1% |
| TAGGGCTTCTCAAAAC (sugars k3 d10 k3, PS) | 4% |
| TAGTGGTTCCCAATCC (sugars k3 d10 k3, PS) | 14% |
| TAGTTCAACCCACCAA (sugars k3 d10 k3, PS) | -14% |
| TAGTTGTATTAATCTC (sugars k3 d10 k3, PS) | 38% |
| TAGTTTACCACCTTTT (sugars k3 d10 k3, PS) | 15% |
| TATGGAACTTGAATGC (sugars k3 d10 k3, PS) | 24% |
| TATTCCCCAATGGAGG (sugars k3 d10 k3, PS) | 17% |
| TATTCTTTTCTTCGCC (sugars k3 d10 k3, PS) | 49% |
| TCAACTGGGAATACTC (sugars k3 d10 k3, PS) | 17% |

| Sequence | target mRNA inhibition |
| --- | --- |
| TCAAGGTCTTTTAATC (sugars k3 d10 k3, PS) | 41% |
| TCAATGCCTACCGCAC (sugars k3 d10 k3, PS) | 3% |
| TCACAAAACCCCCGGA (sugars k3 d10 k3, PS) | 16% |
| TCACCAAGGAGCTGTT (sugars k3 d10 k3, PS) | 12% |
| TCAGGCGAGCTGAGGC (sugars k3 d10 k3, PS) | 7% |
| TCAGGGTGAGGAAGTA (sugars k3 d10 k3, PS) | 50% |
| TCATACACTCACTAGA (sugars k3 d10 k3, PS) | -22% |
| TCATACTGCCAGGCTG (sugars k3 d10 k3, PS) | 29% |
| TCATATTTTAAACGGG (sugars k3 d10 k3, PS) | 23% |
| TCATCAAACACCTCAC (sugars k3 d10 k3, PS) | -8% |
| TCATCAAACACTGGTT (sugars k3 d10 k3, PS) | 36% |
| TCATCTCAACCTCCGT (sugars k3 d10 k3, PS) | 57% and 49% |
| TCCAAAAGAGAACCAC (sugars k3 d10 k3, PS) | 21% |
| TCCAAGCTACTGGCTG (sugars k3 d10 k3, PS) | 20% |
| TCCAATGGACATCTCT (sugars k3 d10 k3, PS) | 25% |
| TCCAGGATTAATGTAG (sugars k3 d10 k3, PS) | 48% |
| TCCATTACGCAACTGA (sugars k3 d10 k3, PS) | 9% |
| TCCCACCCAGCATTAC (sugars k3 d10 k3, PS) | 27% |
| TCCCTATATAAGGTCA (sugars k3 d10 k3, PS) | 5% |
| TCCGCCGCCTCTTAAA (sugars k3 d10 k3, PS) | 26% |
| TCCGCTAAGATGCTAG (sugars k3 d10 k3, PS) | 15% |
| TCCGCTCAAATCCTGA (sugars k3 d10 k3, PS) | 26% |
| TCCGTCATGTTTTAGA (sugars k3 d10 k3, PS) | 50% and 48% |

| Sequence | target mRNA inhibition |
| --- | --- |
| TCCGTTACGAAAGTCC (sugars k3 d10 k3, PS) | 64% and 59% and 50% |
| TCCTAGCTTCATCAAA (sugars k3 d10 k3, PS) | 7% |
| TCCTCAAGCTCCGCCT (sugars k3 d10 k3, PS) | 23% |
| TCCTGCATGTAAGAAT (sugars k3 d10 k3, PS) | 15% |
| TCCTTCACCAAATCGC (sugars k3 d10 k3, PS) | 36% |
| TCGCACTGGCTCCTGG (sugars k3 d10 k3, PS) | 42% |
| TCGCCATGGAAAGCGA (sugars k3 d10 k3, PS) | 15% |
| TCGCTTTTATTCTGCT (sugars k3 d10 k3, PS) | 22% |
| TCTAATCACTGTCAAT (sugars k3 d10 k3, PS) | 32% |
| TCTACCGTTTTTCAGC (sugars k3 d10 k3, PS) | 26% |
| TCTAGACAGACCTAAG (sugars k3 d10 k3, PS) | -6% |
| TCTATTGCCATGTGCC (sugars k3 d10 k3, PS) | 41% |
| TCTCGGGCTGCAGGCT (sugars k3 d10 k3, PS) | 20% |
| TCTCTAACCCAGTTTG (sugars k3 d10 k3, PS) | 16% |
| TCTGAAGAATACCATC (sugars k3 d10 k3, PS) | 15% |
| TCTGATCATAATCTCC (sugars k3 d10 k3, PS) | 39% |
| TCTGGAAAAGCTAGGG (sugars k3 d10 k3, PS) | -21% |
| TCTGTGCTAGATCAAA (sugars k3 d10 k3, PS) | 61% |
| TCTTCTAAATTGGTTC (sugars k3 d10 k3, PS) | 49% |
| TGAAGAATACCATCTG (sugars k3 d10 k3, PS) | 30% |
| TGAAGGATGAAATGCC (sugars k3 d10 k3, PS) | 29% |
| TGACACTTCTCTTGAC (sugars k3 d10 k3, PS) | 30% |
| TGACCTTAGGATAATA (sugars k3 d10 k3, PS) | 62% |

| Sequence | target mRNA inhibition |
| --- | --- |
| TGAGTGAAGTGTACTA (sugars k3 d10 k3, PS) | 42% |
| TGATAACGAAGAGATA (sugars k3 d10 k3, PS) | 15% |
| TGATAGTTCAGGGCTT (sugars k3 d10 k3, PS) | 9% |
| TGATCATAATCTCCCA (sugars k3 d10 k3, PS) | 43% |
| TGCACTAAAGATCACT (sugars k3 d10 k3, PS) | 37% |
| TGCCAAGCCAAGCCGC (sugars k3 d10 k3, PS) | 13% |
| TGCCTTTACTTATCAA (sugars k3 d10 k3, PS) | 26% |
| TGCTCCTCAGTCCTAG (sugars k3 d10 k3, PS) | 26% |
| TGCTGTTACCTCCCAC (sugars k3 d10 k3, PS) | 14% |
| TGGAAAGCGAGTTCAA (sugars k3 d10 k3, PS) | -4% |
| TGGCCTACTCAAGCTC (sugars k3 d10 k3, PS) | -8% |
| TGGGAATACTCTTCCA (sugars k3 d10 k3, PS) | 11% |
| TGGGAGTTACTTGCCA (sugars k3 d10 k3, PS) | 19% |
| TGGTGAATTCAACTGG (sugars k3 d10 k3, PS) | 33% |
| TGGTTAGGTATGAGCT (sugars k3 d10 k3, PS) | 4% |
| TGTAAACCTGTGGTGG (sugars k3 d10 k3, PS) | 48% |
| TGTACTATCCCATCAC (sugars k3 d10 k3, PS) | 51% and 71% |
| TGTCAATAGTACTATA (sugars k3 d10 k3, PS) | 18% |
| TGTCAATTTATAGACC (sugars k3 d10 k3, PS) | 6% |
| TGTGTTATGCCTGGTT (sugars k3 d10 k3, PS) | 1% |
| TGTTATGTTCACCTGA (sugars k3 d10 k3, PS) | 35% |
| TGTTTAAGTCACCTTC (sugars k3 d10 k3, PS) | 74% and 63% |
